Experimental data from ChEMBL document CHEMBL2046416, “An amino-indazole scaffold with spectrum selective kinase inhibition of FLT3, PDGFRα and kit” (Bioorg Med Chem Lett, 2012).

Experiments:
BaF3 [1] = experiment: Antiproliferative activity against mouse BAF3 cells expressing PDGFRalpha T674M mutant gene; assay type: functional, cell-based
BaF3 [2] = experiment: Antiproliferative activity against mouse BAF3 cells expressing Kit […] mutant gene; assay type: functional, cell-based
BaF3 [3] = experiment: Antiproliferative activity against wild type mouse BAF3 cells; assay type: cell-based
MOLT-3 = experiment: Antiproliferative activity against human MOLT3 cells expressing FLT3 gene; assay type: functional, cell-based

EC50 (BaF3 [1]): > 10 µM
EC50 (BaF3 [2]): > 10 µM
EC50 (BaF3 [3]): > 10 µM
EC50 (MOLT-3): > 10 µM
Compound: O=C(NCCN1CCOCC1)c1cccc(-c2ccc3c(NC(=O)C4CC4)n[nH]c3c2)c1
